From US20240293405A1, “(1H-PYRROLO[2,3-B]PYRIDIN-1-YL)PYRIMIDIN-2-YL-AMINO-PHENYL-ACRYLAMIDE INHIBITORS OF EGFR FOR USE IN THE TREATMENT OF BRAIN TUMORS” (Dana-Farber Cancer Institute, Inc., priority 2021, published 2024)
Where “and” joins values, the source holds several entries; their conditions need not be identical. Identical values can stand only once. Like-named read-outs stand apart in the source and are kept apart here.

What was measured:
[1] = In vivo metabolite identification; design: species or system rat, dog and monkey
Excerpt: In in vivo studies in rat, dog and monkey, 35 metabolites were identified. The major circulating compound in all species was parent compound; parent was also a major component in rat feces. Compound 2, demethylated metabolite, was a major active metabolite in all species in plasma and in rat feces. M34, glutathione conjugation and hydrolysis and acetylation metabolite, was a major metabolite in rat urine. Compound 1 was extensively metabolized during excretion with 31 metabolites in rat urine and 32 metabolites in rat feces.

[2] = PC-9 SQ lung tumor xenograft in NOD.SCID mice; assay type: in vivo; details: mouse, plasma, PC-9 model, 4 hours post-dose, oral, read-out: plasma concentration at which anti-tumor activity was noted
Procedure: (§1) Compound 1 was also evaluated in xenograft models of lung tumor cell lines harboring EGFR single and double mutations in the mouse.

[3] = system: 468 human kinases and disease relevant mutant variants; assay: Kinase selectivity binding panel (468 kinases); details: 468 kinase panel, 1 μM free base
Procedure: (§2) Compound 1 and Compound 2 (major metabolite) were evaluated in a panel of 468 human kinases and disease relevant mutant variants. Compound 1 and Compound 2 bound to few non-mutant kinases at <1% of control. […] While there is some variability between Compound 1 and Compound 2, it is clear that both compounds are very effective at binding to a large panel of mutant kinases. […] Binding constant to wild type EGFR was 4.9 nM.

U251-EGFRvIII cells = assay: Viability/proliferation of U251-EGFRvIII cells; assay type: cell-based, human
Procedure: Cells were seeded in 96-well plates at a density of 1,000 cells per well and treated with two-fold serial dilutions of compounds with a starting concentration of 20 μM. Cell viability was assessed after three days of treatment by CellTiter-Glo (Promega). Curve fitting analysis and IC50 value determination were performed using GraphPad Prism 8.
In parallel, the conventional human GBM U251 cell line was used as a surrogate model for both in vitro and in vivo studies. U251 cells were engineered to stably express EGFRvIII (U251-EGFRvIII) via retroviral-mediated gene transfer.

EGFRvIII = EGFRvIII (Homo sapiens, UniProt P00533, DELINS30-297G); assay: EGFRvIII phosphorylation in 293-EGFRvIII cells (western blot); assay type: cell-based; design: expressed in transfected cells; details: 6 hours, read-out: IC50 on EGFRvIII phosphorylation (pEGFRvIII1068)
EGFRvIII, sequence (P00533 with tags, fused parts or gaps DELINS30-297G): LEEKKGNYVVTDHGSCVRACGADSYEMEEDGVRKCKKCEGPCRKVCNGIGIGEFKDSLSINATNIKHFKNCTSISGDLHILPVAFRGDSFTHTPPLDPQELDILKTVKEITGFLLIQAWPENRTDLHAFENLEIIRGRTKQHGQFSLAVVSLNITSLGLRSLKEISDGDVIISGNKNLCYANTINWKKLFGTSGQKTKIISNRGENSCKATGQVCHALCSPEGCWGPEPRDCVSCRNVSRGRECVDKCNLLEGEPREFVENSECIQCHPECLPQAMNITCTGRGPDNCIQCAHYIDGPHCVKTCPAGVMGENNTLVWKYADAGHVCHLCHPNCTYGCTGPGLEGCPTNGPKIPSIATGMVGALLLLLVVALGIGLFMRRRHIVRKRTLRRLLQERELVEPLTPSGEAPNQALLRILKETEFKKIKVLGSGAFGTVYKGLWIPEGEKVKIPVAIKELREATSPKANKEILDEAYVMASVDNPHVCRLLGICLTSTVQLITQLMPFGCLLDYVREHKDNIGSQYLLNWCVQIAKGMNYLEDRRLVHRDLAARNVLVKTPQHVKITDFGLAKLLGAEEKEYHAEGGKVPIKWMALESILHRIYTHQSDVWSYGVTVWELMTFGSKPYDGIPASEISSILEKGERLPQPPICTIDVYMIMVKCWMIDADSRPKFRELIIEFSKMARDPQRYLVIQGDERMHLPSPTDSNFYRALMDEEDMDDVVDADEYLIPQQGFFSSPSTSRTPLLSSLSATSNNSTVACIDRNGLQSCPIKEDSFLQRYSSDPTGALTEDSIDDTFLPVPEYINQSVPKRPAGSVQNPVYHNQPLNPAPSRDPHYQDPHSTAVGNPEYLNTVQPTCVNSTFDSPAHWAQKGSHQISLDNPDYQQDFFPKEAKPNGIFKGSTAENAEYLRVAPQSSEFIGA

[4] = Skin toxicity in mice (visual observation); assay type: in vivo; details: Compound 1 10-50 mg/kg/day vs osimertinib 10-25 mg/kg/day
Excerpt: . (osmertinib, FIG. 6A; Compound 1, FIG. 6B).

[5] = H1975 SQ lung tumor xenograft in NOD.SCID mice; assay type: in vivo; details: NOD.SCID, mouse, plasma; H1975 model, 4 hours post-dose, oral; read-out: plasma concentration at which anti-tumor activity was noted
Procedure: as §1

[6] = system: H1975 cells: EGFR L858R-T790M; assay: H1975 SQ lung tumor xenograft in NOD.SCID mice; assay type: in vivo; details: H1975 lung tumor implants, oral
Procedure: as §1

[7] = Brain and plasma exposure after single oral dose; assay type: in vivo, Sprague Dawley rats; details: own data, oral dosing in rats
Excerpt: Genfitinib concentrations were quantitated by LC-MS/MS from brain and plasma from Group 1 animals.

[8] = system: PC-9 cells (EGFR exon 19 deletion); assay: Cell viability assay, PC-9 (CellTiter-Glo); assay type: cell-based; details: Homo sapiens, PC-9; read-out: IC50, cell viability
Excerpt: CellTier-Glo (Promega) assay kit (https://www.promega.com/resources/protocols/technical-bulletins/0/celltiter-glo-luminescentcell-viability-assay-protocol/) was used here.

CYP3A4/3A5 = assay: CYP phenotyping, human liver microsomes; assay type: in vitro ADME
Excerpt: (§3) Metabolism, inhibition and induction were not observed with other CYPs. Potential DDI interactions exist with drugs that are inhibitors of CYP3A4-T or those metabolized by CYP3A4/3A5; these DDI risks will be better defined once there are human pharmacokinetics (PK) data.

[9] = system: phosphorylated EGFR and cell viability; assay: In vitro GBM studies, summary (phosphorylated EGFR and cell viability); assay type: cell-based; details: GBM models; read-out: IC50 range in in vitro studies targeting decreases in phosphorylated EGFR and cell viability
Excerpt: Compound 1, a third-generation tyrosine kinase inhibitor, is under development for GBM (Wang 2020) Compound 1 binds covalently to its target.

CYP3A4 = assay: CYP 1A2, 2B6 and 3A4 induction, human hepatocytes; assay type: in vitro ADME
Excerpt: as §3

CYP3A4-T = target: T1, CYP3A4-T (Homo sapiens, UniProt P08684); assay: CYP450 inhibition, human liver microsomes; assay type: in vitro ADME
T1 construct: from tissue; host or cells: human liver microsomes
T1 sequence (P08684 whole entry): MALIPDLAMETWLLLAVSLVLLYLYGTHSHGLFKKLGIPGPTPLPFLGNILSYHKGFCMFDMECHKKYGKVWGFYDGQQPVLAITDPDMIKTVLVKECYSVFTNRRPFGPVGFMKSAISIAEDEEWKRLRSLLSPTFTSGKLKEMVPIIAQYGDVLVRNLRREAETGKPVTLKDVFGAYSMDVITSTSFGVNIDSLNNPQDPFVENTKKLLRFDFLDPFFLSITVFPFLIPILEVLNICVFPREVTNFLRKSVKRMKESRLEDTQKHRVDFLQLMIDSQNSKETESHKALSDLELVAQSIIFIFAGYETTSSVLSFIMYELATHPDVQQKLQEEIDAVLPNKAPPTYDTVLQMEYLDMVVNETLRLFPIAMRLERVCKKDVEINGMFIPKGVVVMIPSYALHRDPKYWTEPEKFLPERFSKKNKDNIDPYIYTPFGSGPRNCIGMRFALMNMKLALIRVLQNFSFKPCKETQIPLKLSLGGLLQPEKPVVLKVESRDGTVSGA
Excerpt: as §3

PDGFRA = PDGFRA (Homo sapiens, UniProt P16234); assay: Kinase binding constant (Kd)
Procedure: (§4) EGFR amplifications and/or mutations are common in GBM, estimated to occur in over 50% of patients.
as §2

PDGFRB = PDGFRB (Homo sapiens, UniProt P09619); assay: Kinase binding constant (Kd)
PDGFRB, sequence (P09619 33-1106): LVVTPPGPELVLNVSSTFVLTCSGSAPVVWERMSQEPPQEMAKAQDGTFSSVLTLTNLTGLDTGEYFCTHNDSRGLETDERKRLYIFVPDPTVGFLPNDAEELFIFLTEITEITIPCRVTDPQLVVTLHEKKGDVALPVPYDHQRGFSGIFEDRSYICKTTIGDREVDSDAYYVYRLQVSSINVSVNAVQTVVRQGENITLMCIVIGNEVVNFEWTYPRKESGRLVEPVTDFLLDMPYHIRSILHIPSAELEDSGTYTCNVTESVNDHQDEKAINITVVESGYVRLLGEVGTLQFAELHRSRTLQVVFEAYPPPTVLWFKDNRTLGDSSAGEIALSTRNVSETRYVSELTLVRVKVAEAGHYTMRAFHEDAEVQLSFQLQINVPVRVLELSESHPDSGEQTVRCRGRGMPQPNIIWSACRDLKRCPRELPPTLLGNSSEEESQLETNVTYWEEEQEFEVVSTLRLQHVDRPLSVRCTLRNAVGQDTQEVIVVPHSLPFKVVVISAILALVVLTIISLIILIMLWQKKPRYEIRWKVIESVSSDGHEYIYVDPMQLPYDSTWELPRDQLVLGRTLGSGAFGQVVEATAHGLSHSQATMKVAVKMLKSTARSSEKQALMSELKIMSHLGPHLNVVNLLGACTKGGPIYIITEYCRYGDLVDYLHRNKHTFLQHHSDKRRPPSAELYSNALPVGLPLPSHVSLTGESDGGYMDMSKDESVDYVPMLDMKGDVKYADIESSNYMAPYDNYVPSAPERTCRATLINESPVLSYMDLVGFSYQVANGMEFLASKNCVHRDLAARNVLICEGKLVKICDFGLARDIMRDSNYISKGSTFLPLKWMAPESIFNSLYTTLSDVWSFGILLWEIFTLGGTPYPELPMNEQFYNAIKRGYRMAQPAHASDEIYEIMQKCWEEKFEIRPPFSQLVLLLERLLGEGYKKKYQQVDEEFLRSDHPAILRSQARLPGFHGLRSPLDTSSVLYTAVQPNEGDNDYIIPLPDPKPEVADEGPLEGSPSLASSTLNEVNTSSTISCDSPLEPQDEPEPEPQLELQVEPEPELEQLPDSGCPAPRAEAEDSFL
Procedure: as §4, §2

ALK = ALK (Homo sapiens, UniProt Q9UM73); assay: Kinase binding constant (Kd)
ALK, sequence (Q9UM73 19-1620): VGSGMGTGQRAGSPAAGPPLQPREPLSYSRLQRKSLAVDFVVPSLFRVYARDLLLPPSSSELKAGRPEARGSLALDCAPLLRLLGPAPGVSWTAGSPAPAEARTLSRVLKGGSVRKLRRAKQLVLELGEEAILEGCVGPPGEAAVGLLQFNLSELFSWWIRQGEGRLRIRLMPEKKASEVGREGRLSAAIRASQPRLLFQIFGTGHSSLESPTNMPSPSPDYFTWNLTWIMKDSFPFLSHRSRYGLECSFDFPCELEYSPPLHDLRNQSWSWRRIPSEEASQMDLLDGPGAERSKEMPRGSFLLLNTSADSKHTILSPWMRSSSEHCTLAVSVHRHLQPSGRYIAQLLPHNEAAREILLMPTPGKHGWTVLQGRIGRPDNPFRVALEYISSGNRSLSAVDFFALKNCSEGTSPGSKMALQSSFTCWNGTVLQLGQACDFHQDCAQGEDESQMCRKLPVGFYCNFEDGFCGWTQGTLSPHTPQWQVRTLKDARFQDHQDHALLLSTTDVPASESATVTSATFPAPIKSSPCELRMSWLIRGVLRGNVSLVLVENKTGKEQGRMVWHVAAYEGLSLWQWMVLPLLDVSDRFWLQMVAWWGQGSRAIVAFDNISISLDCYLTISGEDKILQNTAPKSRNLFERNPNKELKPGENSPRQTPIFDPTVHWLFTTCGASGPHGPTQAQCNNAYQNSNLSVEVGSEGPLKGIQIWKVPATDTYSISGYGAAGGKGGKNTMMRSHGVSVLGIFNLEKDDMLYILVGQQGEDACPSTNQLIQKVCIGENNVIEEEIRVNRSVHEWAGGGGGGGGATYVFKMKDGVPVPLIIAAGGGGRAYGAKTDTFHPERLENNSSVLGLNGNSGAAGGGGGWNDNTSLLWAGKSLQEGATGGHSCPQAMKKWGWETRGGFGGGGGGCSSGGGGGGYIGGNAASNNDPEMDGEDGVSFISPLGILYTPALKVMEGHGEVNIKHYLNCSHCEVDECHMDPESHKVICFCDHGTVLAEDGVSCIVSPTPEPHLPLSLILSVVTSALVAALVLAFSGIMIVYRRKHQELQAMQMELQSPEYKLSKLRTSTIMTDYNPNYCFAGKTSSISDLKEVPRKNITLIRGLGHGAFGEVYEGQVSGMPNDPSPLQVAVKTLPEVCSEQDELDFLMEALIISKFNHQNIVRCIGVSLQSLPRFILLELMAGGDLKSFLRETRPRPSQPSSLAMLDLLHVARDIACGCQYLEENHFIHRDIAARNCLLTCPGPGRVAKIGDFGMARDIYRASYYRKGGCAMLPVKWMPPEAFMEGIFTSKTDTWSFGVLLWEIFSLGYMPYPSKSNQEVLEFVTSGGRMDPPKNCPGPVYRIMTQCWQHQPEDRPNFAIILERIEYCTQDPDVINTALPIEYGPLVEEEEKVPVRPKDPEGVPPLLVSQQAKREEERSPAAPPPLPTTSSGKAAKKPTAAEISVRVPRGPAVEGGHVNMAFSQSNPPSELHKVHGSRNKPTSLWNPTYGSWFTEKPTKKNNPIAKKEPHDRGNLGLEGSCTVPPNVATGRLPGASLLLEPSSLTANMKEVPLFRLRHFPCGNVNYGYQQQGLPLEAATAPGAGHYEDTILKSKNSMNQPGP
Procedure: as §4, §2

Compound: C=CC(=O)Nc1cc(Nc2nccc(-n3ccc4cccnc43)n2)c(OC)cc1N(C)CCN(C)C [Compound 1, N-(5-((4-(1H-pyrrolo[2,3-b]pyridin-1-yl)pyrimidin-2-yl)amino)-2-((2-(dimethylamino)ethyl)(methyl)amino)-4-methoxyphenyl)acrylamide]
- number of metabolites in rat feces ([1]; in vivo): 32
- number of metabolites in rat urine ([1]; in vivo): 31
- number of metabolites identified in vivo ([1]; rat, dog and monkey): 35
- concentration at 4 h [2]: 1500 ng/mL and 3.1 µM
- targeted non-mutant kinases (bound at <1% of control) [3]: MAST1, PAK4, PDGFRB and ULK3
- IC50 (U251-EGFRvIII cells; Homo sapiens, values of the text and Table 9, read-out: IC50, viability of U251-EGFRvIII cells): 1.52 µM
- IC50 (U251-EGFRvIII cells; Homo sapiens, Table 2, read-out: IC50 on U251-EGFRvIII cell proliferation): 1.48 µM
- cell survival, fold less than that of erlotinib (U251-EGFRvIII cells; U251-EGFRvIII cells): 9 fold
- cell survival, fold less than that of gefitinib (U251-EGFRvIII cells; U251-EGFRvIII cells): 13 fold
- IC50 (U251-EGFRvIII cells; values of the text and Table 9, read-out: IC50, viability of U251-EGFRvIII cells): 1.5 µM
- IC50 (EGFRvIII): 0.19 µM
- skin toxicity (visual observation) [4]: Lower Skin Toxicity than Osimertinib
- concentration at 4 h [5]: 800 ng/mL and 1.6 µM
- tumor response [6]: substantial tumor regression
- Brain Penetration (% of B/P ratio in preclinical model) [7]: 2830% (oral)
- IC50 [8]: 0.0628 µM
- primarily metabolizing CYP (CYP3A4/3A5): CYP3A4/3A5
- IC50 [9]: 0.17 to 3.28 µM
- CYP induction based on enzyme activity (CYP3A4): no CYP induction
- IC50 (CYP3A4-T): 4.89 µM
- Kd (PDGFRA): 1.5 µM
- Kd (PDGFRB): 5.2 µM
- Kd (ALK): 0.25 µM
